Results reported in patent US20090005424A9, “Composition and Method for Treating Fibrotic Diseases” (priority 2005, published 2009).

Columns and labels:
[1] = test system: Human Peritoneal Mesothelial Cells; assay: MTT proliferation assay, human peritoneal mesothelial cells; assay type: cell-based
Experimental: In the following examples, myocardiac fibroblasts, skin scar forming fibroblast and human peritoneal mesothelial cells are primary cultures prepared according to common procedure. Other cells are commercially purchased. 1-(3-fluorophenyl)-5-methyl-2(1H)-pyridone (AKF-PD) is prepared as a suspension in 5% carboxymethylcellulose.
(§1) Cell proliferation was measured by MTT assay. DMEM with 10% fetal serum was used as cell culture medium. The cells were prepared in suspension (1×10^5/ml), and 100 μL of the suspension was transferred to each well of a 96 wells plate. Once the cells were attached to the plastic, the culture was changed to serum free medium and incubated for another 24 hours. Then, the serum free medium was aspirated, and various concentrations of 1-(3′-fluorophenyl)-5-methyl-2(1H)-pyridone (AKF-PD) or PIRFENIDONE (PFD) in 10% serum medium were added into each well with 5 replicates for each concentration. The cells were stained with MTT (10 μL per well) at 12, 22, or 48 hours post drug treatment. After 4 hrs of incubation, the medium with MTT was aspirated from each well. One hundred μL MTT solvent was added to each well for 15 min, and the dissolved MTT was measured with a plate reader at 570 nm.

[2] = Acute oral toxicity in Kun Ming mice, LD50 by Bliss method; details: both sexes, Kun Ming (KM), mouse, in vivo, po
Experimental: Male and female Kun Ming (KM) mice weighing between 18 g-22 g were acquired from the animal facility of Hsiang-Ya Medical College, the Central South University. Fifty Kun Ming mice were randomly assigned into 5 groups with 5 male and 5 female mice for each group. The animals went through fasting with a normal water supply before starting drug treatment (either AKF-PD or PIRFENIDONE). The drug was administrated orally by gavage. The volume of liquid drug was 20 ml/kg body weight. The range of dosage for AKF-PD administrated was from 1071 mg/kg to 6000 mg/kg. The dosage difference between two adjacent doses was 1:0.65 (a dose vs the next lower dose). All animals were maintained under a regular condition. Acute toxic reaction and death within 14 days of post drug treatment were recorded. Autopsy was performed on all dead animals and visual examination was performed on all organs.
LD50 was calculated according to Bliss method. […] The results of Table 15 are very close to those reported in the literature: 997.7 mg/kg (U.S. Pat. No. 5,310,562) and 1112 mg/kg(Pharmaceutical Care and Research 5:4823(2005)).

[3] = test system: Rat Pulmonary Fibroblasts; assay: MTT proliferation assay, rat pulmonary fibroblasts; assay type: cell-based; details: for order of inhibitory effect: rat pulmonary fibroblasts
Experimental: as §1, with “(AKF-PD) or 1-(3′-bromophenyl)-5-Methyl-2(1H)-Pyridone or PIRFENIDONE (PFD)” for “(AKF-PD) or PIRFENIDONE (PFD)”, “well) at 24, or 48” for “well) at 12, 22, or 48”

[4] = test system: Sprague-Dawley rats, Bleomycin-induced pulmonary fibrosis; assay: Bleomycin-induced rat pulmonary fibrosis, severity of fibrotic lesions; assay type: in vivo; details: AKF-PD 500 mg/kg daily by gavage; 27 days post surgery; total of 8 rats
Experimental: Bleomycin-induced rat pulmonary fibrosis is selected for testing 5-methyl-1-(3′-fluorophenyl)-2(1H)-pyridone (AKF-PD). Male Sprague-Dawley rats (6-8 weeks old, 180 g˜220 g) were cared under regular condition. The animals were randomly divided into 3 groups: sham surgical group, model disease group, and disease/AKF-PD group. Six mg/kg/4 ml of Bleomycin was slowly infused into the trachea of rats in the model disease and disease/AKF-PD groups. Same amount of normal saline was infused into the trachea of rats in the sham surgical group.
Five hundred mg/kg AKF-PD was directly administrated by gavage to rats in the disease/AKF-PD group daily from 2 days prior to operation through 27 days after operation. Normal saline was used for all animals in both disease and sham surgical groups. The animals were sacrificed at 27 days post surgery and the lung tissues were removed for pathological sample preparation. The HE-stained lung tissues from each rat were examined under microscope to determine the frequency and severity of fibrotic lesion. Evaluation of lung tissue fibrosis was carried out according to the method of Szapiel et al., Bleomycin-induced interstitial pulmonary disease in the nude, athymic mouse. Am. Rev. Respir. Dis. 120:893-9(1979).

[5] = test system: fibroblast; assay: Inhibition of fibroblast, side-by-side comparison of substituents; assay type: cell-based; details: structural formula II, n=1
[6] = test system: SD rat, Unilateral Ureteral Obstruction (UUO) model; assay: Rat UUO model of renal interstitial fibrosis, histological score (Example 8); assay type: in vivo; details: UUO rats; AKF-PD 500 mg/kg/d, Enalapril 10 mg/kg/d by gavage; 14 days post surgery; Radford's method
Experimental: Anti-fibrotic effect of AKF-PD was tested on a SD rat model for renal interstitial fibrosis induced by surgical ligation of single side ureter (Unilateral Ureteral Obstruction, UUO, model). Eight weeks old male SD rats (180 g˜220 g) were randomly divided into sham surgical group, disease model group, Enalapril (10 mg/kg/d) group and AKF-PD (500 mg/kg/d) group. […] The animals of the sham surgical group experienced the same surgical procedure except the ligation step. The respective drugs were administrated by gavage to rats in the groups of Enalapril and AKF-PD from one day prior to the procedure to 14 days post surgical procedure. Normal saline was administrated in a similar fashion to the rats in the groups of disease model and sham surgical. The animals were sacrificed 14 days after surgical procedure and their left kidney were removed for pathological (HE staining) examination. Histological scoring for interstitial compartment was done according to Radford's method (Radford et al., Predicting renal outcome in IgA nephropathy. J. Am. Soc. Nephrol. 8: 199-207(1997)).

SMILES	Optical Density at 570 nm ([1]; 100 μg/ml, 12 h)	Optical Density at 570 nm ([1]; 100 μg/ml, 24 h)	Optical Density at 570 nm ([1]; 100 μg/ml, 48 h)	Optical Density at 570 nm ([1]; 500 μg/ml, 12 h)	Optical Density at 570 nm ([1]; 500 μg/ml, 24 h)	Optical Density at 570 nm ([1]; 500 μg/ml, 48 h)	LD50 at 14 days ([2]; LD50)	LD50 at 14 days ([2]; LD50 95% confidence limit)	Optical Density at 570 nm ([3]; 100 μg/ml, 24 h)	Optical Density at 570 nm ([3]; 100 μg/ml, 48 h)	Optical Density at 570 nm ([3]; 500 μg/ml, 24 h)	Optical Density at 570 nm ([3]; 500 μg/ml, 48 h)	Optical Density at 570 nm ([3]; 1000 μg/ml, 24 h)	Optical Density at 570 nm ([3]; 1000 μg/ml, 48 h)	order of inhibitory effect [3]	also measured
Cc1ccc(=O)n(-c2ccccc2)c1 [PFD, 5-methyl-1-phenyl-2(1H)-pyridone, reference compound]	0.346 ± 0.006	0.584 ± 0.005	0.810 ± 0.006	0.343 ± 0.004	0.577 ± 0.003	0.766 ± 0.004	955 mg/kg	551 to 1660 mg/kg	0.2023 ± 0.0169	0.1864 ± 0.0530	0.1887 ± 0.0130	0.1459 ± 0.0255	0.1797 ± 0.0166	0.1269 ± 0.0302	AKF-PD>AKF-BR>pirfenidone	
Cc1ccc(=O)n(-c2cccc(F)c2)c1 [AKF-PD, 1-(3′-fluorophenyl)-5-methyl-2(1H)-pyridone]	0.344 ± 0.004	0.583 ± 0.004	0.807 ± 0.007	0.344 ± 0.005	0.573 ± 0.004	0.758 ± 0.010	2980 mg/kg	2400 to 3700 mg/kg	0.1467 ± 0.0138	0.1369 ± 0.0115	0.1258 ± 0.0119	0.1214 ± 0.0234	0.1130 ± 0.0163	0.1119 ± 0.0285	AKF-PD>AKF-BR>pirfenidone	Optical Density at 570 nm ([1]; 1000 μg/ml, 12 h): 0.343 ± 0.004; Optical Density at 570 nm ([1]; 1000 μg/ml, 24 h): 0.553 ± 0.004; Optical Density at 570 nm ([1]; 1000 μg/ml, 48 h): 0.704 ± 0.003; Optical Density at 570 nm ([1]; 2500 μg/ml, 12 h): 0.346 ± 0.005; Optical Density at 570 nm ([1]; 2500 μg/ml, 24 h): 0.502 ± 0.003; Optical Density at 570 nm ([1]; 2500 μg/ml, 48 h): 0.646 ± 0.006; anti-proliferative potency compared with PIRFENIDONE ([1]; human peritoneal mesothelial cells): more potent anti-proliferative agent than PIRFENIDONE; Number of rats with Severity of Fibrosis: Milder [4]: 6; Number of rats with Severity of Fibrosis: Moderate [4]: 1; Number of rats with Severity of Fibrosis: None [4]: 0; Number of rats with Severity of Fibrosis: Sever [4]: 1; activity inhibiting fibroblast [5]: activities inhibiting fibroblast; Histological Score for Interstitial Compartment [6]: 6.43 ± 1.28; suppression of proliferation of rat pulmonary fibroblasts [3]: could suppress proliferation of rat pulmonary fibroblasts
